This assay deals with rat of gait disturbance model by cauda equina compression. As to the kind of experiment: Walking ability (treadmill) in rat gait disturbance model by cauda equina compression. It is filed as in vivo. As to conditions: spinal canal stenosis model, administered orally for 11 days after the operation, vs negative control (carboxymethylcellulose or toragacanth gum), Dunnett's test, FIG. 1 and FIG. 2. From the text: Improvement effect of this invented compound in a rat model of gait disturbance model by cauda equina compression:
<Method of Making an Animal Model>
A rat of gait disturbance model by cauda equina compression was made by the method of Takenobu et al. (J. Neurosci. Methods, 104(2), 191-198 (2002)). Namely, a rat was anesthetized by sodium pentobarbital, removed its dorsal hair and then was fixed its body in the prone position. After disinfection of the back with Chlorhexidine gluconate (5% Hibiten Liquid: Sumitomo Pharmaceuticals), the lumbar was incised along the midline to expose the spine. After excision of the fifth lumbar spinous process, silicon rubber 1×4×1.25 mm (height×length×width) were inserted into the fourth and the sixth lumbar spinal canals from small holes of vertebral arch which was made by mini-drill. […]
The rats were put on the running belt, and adapted to the condition where the grid was sent an electric current (0.04 mA-4 mA) for three minutes or more. […] The distance between the point to walk and the point to give up walk, in other words, the point where it is impossible for them to walk even though the stimulation (sound, contact and electricity) to make them walk was given, was measured with the mileometer built into the equipment. […] The results obtained from the compounds- and negative control-groups were analyzed by the Dunnett's multiple comparison test (*P<0.05). […]

The values that follow come from patent US20060058310A1, “Remedies for vertebral canal stenosis” (priority 2002, published 2006).

Entries after “also recorded” stand apart in the source; their conditions may differ.

For `O=C1C[C@@]2(C(=O)N1)C(=O)N(Cc1ccc(Br)cc1F)C(=O)c1cccn12` [Compound B, (R)-2-(4-bromo-2-fluorobenzyl)spiro[1,2,3,4-tetrahydropyrrolo[1,2-a]pyrazine-4,3′-pyrrolidine]-1,2′,3,5′-tetrone], the “improvement of walking dysfunction (walking distance on treadmill)” value was “improved the pathology; also recorded: improved the walking dysfunction”.
